In the kinase profiling compilation of Christmann-Franck et al. (2016):

Columns and labels:
Test in all cases: radiometric filter-binding kinase assay, Kinase HotSpot
Settings in all cases: compound 0.5 µM; ATP 10 µM
[1] = target: ABL2 (human) (UniProt P42684)
[2] = target: AXL (human) (UniProt P30530)
[3] = target: BMX (human) (UniProt P51813)
[4] = target: BRAF (human) (UniProt P15056)
[5] = target: CAMKK1 (human) (UniProt Q8N5S9)
[6] = target: CDK2 CCNE1 (human) (UniProt P24941+P24864)
[7] = target: CDK9 CCNT1 (human) (UniProt P50750+O60563)
[8] = target: CHEK1 (human) (UniProt O14757)
[9] = target: CHEK2 (human) (UniProt O96017)
[10] = target: CLK3 (human) (UniProt P49761)
[11] = target: CSK (human) (UniProt P41240)
[12] = target: CSNK1G1 (human) (UniProt Q9HCP0)
[13] = target: DSTYK (human) (UniProt Q6XUX3)
[14] = target: DYRK2 (human) (UniProt Q92630)
[15] = target: EPHA6 (human) (UniProt Q9UF33)
[16] = target: EPHB2 (human) (UniProt P29323)
[17] = target: GRK7 (human) (UniProt Q8WTQ7)
[18] = target: HIPK4 (human) (UniProt Q8NE63)
[19] = target: ITK (human) (UniProt Q08881)
[20] = target: JAK1 JH1 catalytic (human) (UniProt P23458)
[21] = target: LTK (human) (UniProt P29376)
[22] = target: MAP3K2 (human) (UniProt Q9Y2U5)
[23] = target: MAP3K9 (human) (UniProt P80192)
[24] = target: MAPK10 (human) (UniProt P53779)
[25] = target: MARK3 (human) (UniProt P27448)
[26] = target: MKNK2 (human) (UniProt Q9HBH9)
[27] = target: NEK1 (human) (UniProt Q96PY6)
[28] = target: NTRK2 (human) (UniProt Q16620)
[29] = target: NUAK1 (human) (UniProt O60285)
[30] = target: NUAK2 (human) (UniProt Q9H093)
[31] = target: PAK7 (human) (UniProt Q9P286)
[32] = target: PKN2 (human) (UniProt Q16513)
[33] = target: PRKCA (human) (UniProt P17252)
[34] = target: PRKCD (human) (UniProt Q05655)
[35] = target: PRKCZ (human) (UniProt Q05513)
[36] = target: PRKD1 (human) (UniProt Q15139)
[37] = target: PRKD2 (human) (UniProt Q9BZL6)
[38] = target: PTK6 (human) (UniProt Q13882)
[39] = target: TAOK1 (human) (UniProt Q7L7X3)
[40] = target: TAOK2 (human) (UniProt Q9UL54)
[41] = target: TTK (human) (UniProt P33981)
[42] = target: YES1 (human) (UniProt P07947)

EPHB2 (human), sequence (P29323 whole entry, looked up): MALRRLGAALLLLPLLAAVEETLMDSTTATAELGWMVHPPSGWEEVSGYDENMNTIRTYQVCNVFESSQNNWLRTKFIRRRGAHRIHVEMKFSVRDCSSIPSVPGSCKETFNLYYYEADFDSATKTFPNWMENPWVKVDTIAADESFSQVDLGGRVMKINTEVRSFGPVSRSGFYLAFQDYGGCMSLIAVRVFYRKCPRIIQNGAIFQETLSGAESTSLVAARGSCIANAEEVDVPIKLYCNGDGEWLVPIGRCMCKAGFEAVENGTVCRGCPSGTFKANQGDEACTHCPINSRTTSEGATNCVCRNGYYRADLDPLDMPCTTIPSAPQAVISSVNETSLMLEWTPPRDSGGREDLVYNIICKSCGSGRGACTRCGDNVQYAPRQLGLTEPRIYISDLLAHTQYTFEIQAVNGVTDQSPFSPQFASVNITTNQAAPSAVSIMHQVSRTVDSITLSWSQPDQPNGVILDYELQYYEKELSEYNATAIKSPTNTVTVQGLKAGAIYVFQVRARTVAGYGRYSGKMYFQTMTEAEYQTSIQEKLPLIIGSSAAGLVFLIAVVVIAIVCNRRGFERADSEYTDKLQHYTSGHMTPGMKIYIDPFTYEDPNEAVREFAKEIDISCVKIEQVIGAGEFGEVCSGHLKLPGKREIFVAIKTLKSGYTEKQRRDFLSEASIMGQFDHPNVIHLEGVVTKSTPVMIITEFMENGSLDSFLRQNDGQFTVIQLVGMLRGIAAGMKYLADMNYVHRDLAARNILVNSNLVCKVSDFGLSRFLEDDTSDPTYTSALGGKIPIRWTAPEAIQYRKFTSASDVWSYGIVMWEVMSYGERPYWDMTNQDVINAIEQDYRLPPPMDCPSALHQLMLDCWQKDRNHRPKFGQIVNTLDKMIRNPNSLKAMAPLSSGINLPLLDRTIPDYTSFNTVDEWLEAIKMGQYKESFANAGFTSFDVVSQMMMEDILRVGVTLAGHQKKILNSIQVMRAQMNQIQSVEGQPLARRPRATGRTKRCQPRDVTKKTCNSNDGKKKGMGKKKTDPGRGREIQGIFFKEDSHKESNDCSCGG
ABL2 (human), sequence (P42684 whole entry, looked up): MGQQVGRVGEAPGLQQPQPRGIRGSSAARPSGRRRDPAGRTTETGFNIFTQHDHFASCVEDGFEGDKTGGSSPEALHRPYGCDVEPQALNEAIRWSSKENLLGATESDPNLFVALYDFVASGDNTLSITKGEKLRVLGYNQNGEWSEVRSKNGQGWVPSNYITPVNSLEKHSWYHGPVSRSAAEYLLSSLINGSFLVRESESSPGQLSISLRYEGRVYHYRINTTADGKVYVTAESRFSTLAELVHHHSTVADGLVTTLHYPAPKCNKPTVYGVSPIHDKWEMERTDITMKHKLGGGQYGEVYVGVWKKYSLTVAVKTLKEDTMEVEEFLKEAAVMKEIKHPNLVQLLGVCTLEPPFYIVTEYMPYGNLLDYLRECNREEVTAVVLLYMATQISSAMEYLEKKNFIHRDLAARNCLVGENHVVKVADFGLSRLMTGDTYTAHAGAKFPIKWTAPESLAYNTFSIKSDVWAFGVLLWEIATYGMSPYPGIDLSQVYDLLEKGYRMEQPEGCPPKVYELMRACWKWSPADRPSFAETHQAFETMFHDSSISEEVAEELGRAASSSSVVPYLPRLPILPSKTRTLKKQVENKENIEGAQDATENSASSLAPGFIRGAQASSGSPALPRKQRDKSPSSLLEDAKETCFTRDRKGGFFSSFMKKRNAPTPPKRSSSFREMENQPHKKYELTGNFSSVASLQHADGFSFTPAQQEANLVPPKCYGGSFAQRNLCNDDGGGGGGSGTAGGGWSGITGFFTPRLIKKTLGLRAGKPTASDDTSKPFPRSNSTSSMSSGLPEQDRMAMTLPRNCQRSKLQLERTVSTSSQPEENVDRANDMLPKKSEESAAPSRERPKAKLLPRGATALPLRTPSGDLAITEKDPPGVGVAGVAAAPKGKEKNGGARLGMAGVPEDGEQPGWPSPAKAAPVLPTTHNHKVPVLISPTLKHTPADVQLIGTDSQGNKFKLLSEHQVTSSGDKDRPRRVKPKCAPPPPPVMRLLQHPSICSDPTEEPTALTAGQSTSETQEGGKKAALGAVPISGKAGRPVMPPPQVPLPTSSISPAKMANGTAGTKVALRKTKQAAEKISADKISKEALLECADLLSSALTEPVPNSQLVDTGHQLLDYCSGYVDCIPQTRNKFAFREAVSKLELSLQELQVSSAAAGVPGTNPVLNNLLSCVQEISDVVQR
MKNK2 (human), sequence (Q9HBH9 whole entry, looked up): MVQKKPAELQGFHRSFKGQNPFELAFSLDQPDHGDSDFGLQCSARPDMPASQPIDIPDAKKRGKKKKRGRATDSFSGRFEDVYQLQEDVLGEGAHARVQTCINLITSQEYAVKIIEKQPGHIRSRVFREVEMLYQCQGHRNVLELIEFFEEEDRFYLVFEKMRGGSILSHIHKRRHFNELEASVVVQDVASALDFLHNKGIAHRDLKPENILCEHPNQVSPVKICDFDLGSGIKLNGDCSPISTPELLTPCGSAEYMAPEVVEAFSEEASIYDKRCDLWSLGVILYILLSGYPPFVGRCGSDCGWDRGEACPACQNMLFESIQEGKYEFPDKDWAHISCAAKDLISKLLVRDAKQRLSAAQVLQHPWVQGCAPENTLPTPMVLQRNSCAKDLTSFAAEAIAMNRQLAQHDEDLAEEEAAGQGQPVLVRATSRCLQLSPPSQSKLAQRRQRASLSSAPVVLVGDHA
TTK (human), sequence (P33981 whole entry, looked up): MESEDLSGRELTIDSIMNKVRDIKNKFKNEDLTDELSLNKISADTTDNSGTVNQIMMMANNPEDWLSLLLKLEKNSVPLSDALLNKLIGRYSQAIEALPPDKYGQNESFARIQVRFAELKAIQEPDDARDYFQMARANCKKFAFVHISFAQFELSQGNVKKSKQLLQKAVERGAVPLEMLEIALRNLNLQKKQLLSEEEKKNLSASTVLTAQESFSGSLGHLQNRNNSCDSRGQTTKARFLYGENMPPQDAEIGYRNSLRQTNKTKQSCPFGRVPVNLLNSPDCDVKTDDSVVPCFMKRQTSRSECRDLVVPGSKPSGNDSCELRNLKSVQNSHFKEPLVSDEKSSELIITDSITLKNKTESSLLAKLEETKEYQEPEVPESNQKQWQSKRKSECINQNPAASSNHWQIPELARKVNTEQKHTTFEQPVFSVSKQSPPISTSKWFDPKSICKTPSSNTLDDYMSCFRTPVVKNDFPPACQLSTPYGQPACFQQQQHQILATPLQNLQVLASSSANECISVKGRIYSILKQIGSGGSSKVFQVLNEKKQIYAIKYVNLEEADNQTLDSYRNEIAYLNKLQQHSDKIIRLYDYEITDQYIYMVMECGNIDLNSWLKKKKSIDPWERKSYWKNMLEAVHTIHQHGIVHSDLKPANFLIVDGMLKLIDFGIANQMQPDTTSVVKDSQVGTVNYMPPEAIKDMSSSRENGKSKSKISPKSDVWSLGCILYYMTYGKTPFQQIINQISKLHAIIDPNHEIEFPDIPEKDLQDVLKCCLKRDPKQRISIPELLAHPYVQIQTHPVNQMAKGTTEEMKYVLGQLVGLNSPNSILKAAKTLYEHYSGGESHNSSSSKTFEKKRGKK
MARK3 (human), sequence (P27448 whole entry, looked up): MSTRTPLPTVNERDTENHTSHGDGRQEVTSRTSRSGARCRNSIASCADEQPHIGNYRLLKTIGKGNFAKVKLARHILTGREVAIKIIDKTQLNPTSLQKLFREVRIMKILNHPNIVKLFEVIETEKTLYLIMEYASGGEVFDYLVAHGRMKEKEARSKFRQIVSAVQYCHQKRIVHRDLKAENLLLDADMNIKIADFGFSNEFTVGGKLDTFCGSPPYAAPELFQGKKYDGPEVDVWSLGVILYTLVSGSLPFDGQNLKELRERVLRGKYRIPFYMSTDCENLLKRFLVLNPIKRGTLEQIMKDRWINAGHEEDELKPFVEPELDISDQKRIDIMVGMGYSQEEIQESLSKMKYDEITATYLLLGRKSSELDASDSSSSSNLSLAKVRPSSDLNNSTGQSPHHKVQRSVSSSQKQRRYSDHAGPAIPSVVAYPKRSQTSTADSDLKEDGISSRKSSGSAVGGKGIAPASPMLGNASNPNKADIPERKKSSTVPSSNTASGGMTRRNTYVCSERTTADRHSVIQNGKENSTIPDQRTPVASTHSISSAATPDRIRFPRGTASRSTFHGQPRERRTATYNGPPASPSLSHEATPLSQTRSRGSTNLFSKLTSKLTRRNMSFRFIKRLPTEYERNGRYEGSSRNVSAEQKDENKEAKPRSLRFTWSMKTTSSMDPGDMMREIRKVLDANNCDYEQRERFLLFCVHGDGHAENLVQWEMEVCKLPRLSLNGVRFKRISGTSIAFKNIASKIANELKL
PRKCZ (human), sequence (Q05513 whole entry, looked up): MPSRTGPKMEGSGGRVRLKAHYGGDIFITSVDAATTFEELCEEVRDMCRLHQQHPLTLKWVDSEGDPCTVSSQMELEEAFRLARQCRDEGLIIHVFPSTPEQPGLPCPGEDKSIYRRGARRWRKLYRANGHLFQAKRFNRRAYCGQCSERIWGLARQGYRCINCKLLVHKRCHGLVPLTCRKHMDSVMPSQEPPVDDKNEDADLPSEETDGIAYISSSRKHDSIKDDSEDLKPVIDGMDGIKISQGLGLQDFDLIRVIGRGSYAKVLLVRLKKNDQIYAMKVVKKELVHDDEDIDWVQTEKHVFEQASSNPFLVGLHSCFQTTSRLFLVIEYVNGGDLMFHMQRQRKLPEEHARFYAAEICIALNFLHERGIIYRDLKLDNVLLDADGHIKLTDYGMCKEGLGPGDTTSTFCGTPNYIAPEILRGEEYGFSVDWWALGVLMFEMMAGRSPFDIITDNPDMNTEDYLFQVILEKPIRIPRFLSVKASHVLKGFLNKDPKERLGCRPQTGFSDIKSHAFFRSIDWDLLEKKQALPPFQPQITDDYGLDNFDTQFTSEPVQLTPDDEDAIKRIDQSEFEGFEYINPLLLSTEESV

Compound: N#C/C(=C(/N)Sc1ccc(N)cc1)c1ccccc1C(F)(F)F
- residual activity [1]: 101%
- residual activity [2]: 119%
- residual activity [3]: 99.7%
- residual activity [4]: 95%
- residual activity [5]: 117%
- residual activity [6]: 95.4%
- residual activity [7]: 97.7%
- residual activity [8]: 97.5%
- residual activity [9]: 97.7%
- residual activity [10]: 103%
- residual activity [11]: 90.9%
- residual activity [12]: 89%
- residual activity [13]: 113%
- residual activity [14]: 96.6%
- residual activity [15]: 92.3%
- residual activity [16]: 101%
- residual activity [17]: 113%
- residual activity [18]: 100%
- residual activity [19]: 97.4%
- residual activity [20]: 106%
- residual activity [21]: 100%
- residual activity [22]: 115%
- residual activity [23]: 85.9%
- residual activity [24]: 94.7%
- residual activity [25]: 107%
- residual activity [26]: 109%
- residual activity [27]: 99%
- residual activity [28]: 103%
- residual activity [29]: 95.9%
- residual activity [30]: 75%
- residual activity [31]: 104%
- residual activity [32]: 99.9%
- residual activity [33]: 100%
- residual activity [34]: 97.5%
- residual activity [35]: 106%
- residual activity [36]: 103%
- residual activity [37]: 93.4%
- residual activity [38]: 97.6%
- residual activity [39]: 98.3%
- residual activity [40]: 101%
- residual activity [41]: 93.6%
- residual activity [42]: 111%

Compound: CC(C)N(CCC(=O)c1ccc2ccccc2c1)Cc1ccccc1
- residual activity [1]: 100%
- residual activity [2]: 108%
- residual activity [3]: 102%
- residual activity [4]: 95.6%
- residual activity [5]: 104%
- residual activity [6]: 89.2%
- residual activity [7]: 96.4%
- residual activity [8]: 106%
- residual activity [9]: 87.5%
- residual activity [10]: 99.6%
- residual activity [11]: 88.5%
- residual activity [12]: 101%
- residual activity [13]: 84.9%
- residual activity [14]: 118%
- residual activity [15]: 93.3%
- residual activity [16]: 102%
- residual activity [17]: 121%
- residual activity [18]: 107%
- residual activity [19]: 89.9%
- residual activity [20]: 112%
- residual activity [21]: 103%
- residual activity [22]: 107%
- residual activity [23]: 104%
- residual activity [24]: 91.1%
- residual activity [25]: 101%
- residual activity [26]: 100%
- residual activity [27]: 81.9%
- residual activity [28]: 92.1%
- residual activity [29]: 97.1%
- residual activity [30]: 85.4%
- residual activity [31]: 98.5%
- residual activity [32]: 98.7%
- residual activity [33]: 107%
- residual activity [34]: 94%
- residual activity [35]: 100%
- residual activity [36]: 98%
- residual activity [37]: 98.5%
- residual activity [38]: 96.4%
- residual activity [39]: 94.9%
- residual activity [40]: 96.1%
- residual activity [41]: 96%
- residual activity [42]: 100%
